The text below walks through data of patent publication US20030073850A1, “4-Imidazole derivatives of benzyl and restricted benzyl sulfonamides, sulfamides, ureas, carbamates, and amides and their use” (priority 1998, published 2003).

Data set [1] concerns the target T1, α1b (hamster receptor expressed in mouse fibroblasts) (Mesocricetus auratus, UniProt P18841).
T1 construct: expressed in transfected cells; host or cells: mouse fibroblasts
T1 sequence (P18841 1-515): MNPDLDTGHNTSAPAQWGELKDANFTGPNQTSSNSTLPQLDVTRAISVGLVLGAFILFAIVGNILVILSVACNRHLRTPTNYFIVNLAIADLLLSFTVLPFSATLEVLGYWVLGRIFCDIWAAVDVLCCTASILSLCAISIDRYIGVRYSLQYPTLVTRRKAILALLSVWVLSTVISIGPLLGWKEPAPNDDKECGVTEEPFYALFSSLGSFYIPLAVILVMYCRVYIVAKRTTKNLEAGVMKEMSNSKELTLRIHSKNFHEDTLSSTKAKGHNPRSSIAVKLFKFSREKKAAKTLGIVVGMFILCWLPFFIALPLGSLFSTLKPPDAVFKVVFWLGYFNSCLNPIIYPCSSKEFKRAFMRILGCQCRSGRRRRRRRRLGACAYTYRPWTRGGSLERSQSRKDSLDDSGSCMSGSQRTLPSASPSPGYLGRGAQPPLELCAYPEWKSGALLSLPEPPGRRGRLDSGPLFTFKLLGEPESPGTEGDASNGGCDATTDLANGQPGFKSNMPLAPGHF
Description: Radioligand binding, [3H]-prazosin, α1b. The procedure: (§1) For purposes of discussing a, adrenoceptor subtypes, the IUPHAR convention of using lower case letters to define molecular clones and upper case letters to indicate pharmacologically defined adrenoceptors has been followed. Compounds of formula I were evaluated in radioligand binding assays specific for α1A (rat submaxillary gland), α1b (hamster receptor expressed in mouse fibroblasts) and α1d (rat receptor expressed in mouse fibroblasts) using [^3H]-prazosin as the radioligand as described in Knepper, et al. J. Pharm.

The target of data set [2] is T2, α1d (rat receptor expressed in mouse fibroblasts) (Rattus norvegicus, UniProt P23944).
T2 construct: expressed in transfected cells; host or cells: mouse fibroblasts
T2 sequence (P23944 1-561): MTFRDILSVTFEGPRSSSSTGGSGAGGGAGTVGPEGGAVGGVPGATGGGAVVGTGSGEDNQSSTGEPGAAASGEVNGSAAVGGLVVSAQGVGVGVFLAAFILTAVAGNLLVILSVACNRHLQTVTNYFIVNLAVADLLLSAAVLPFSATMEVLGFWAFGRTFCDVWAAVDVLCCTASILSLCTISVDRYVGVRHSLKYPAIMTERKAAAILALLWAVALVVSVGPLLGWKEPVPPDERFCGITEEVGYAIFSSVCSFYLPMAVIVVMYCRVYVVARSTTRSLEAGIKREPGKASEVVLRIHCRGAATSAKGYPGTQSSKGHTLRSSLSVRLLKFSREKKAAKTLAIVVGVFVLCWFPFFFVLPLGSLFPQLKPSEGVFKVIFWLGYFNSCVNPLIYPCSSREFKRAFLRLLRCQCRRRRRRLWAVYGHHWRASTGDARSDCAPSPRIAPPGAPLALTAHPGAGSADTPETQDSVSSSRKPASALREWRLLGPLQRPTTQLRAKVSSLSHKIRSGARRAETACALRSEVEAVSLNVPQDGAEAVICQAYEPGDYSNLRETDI
Put plainly: Radioligand binding, [3H]-prazosin, α1d. The procedure:
as §1

Where [3] appears, read: hamster receptor expressed in mouse fibroblasts, [3H]-prazosin, read-out: Radioligand Binding Ki α1b (Hamster).
Setting [4] is: rat receptor expressed in mouse fibroblasts, [3H]-prazosin, read-out: Radioligand Binding Ki α1d (Rat).

Structures can show the parent of a compound that is named as a salt. Where two headings read alike, the source gives them in different places.

Broadly, the Ki is a dissociation constant, usually derived from enzyme kinetics or from competition with a known ligand. What is called melting point is the temperature of the solid-liquid transition.

In turn, `CCS(=O)(=O)Nc1ccc(Cl)c2c1CCCC2c1c[nH]cn1.O=C(O)/C=C\C(=O)O` (centres unmarked) [Example 42, N-[4-chloro-5-(1H-imidazol-4-yl)-5,6,7,8-tetrahydro-1-naphthalenyl]ethanesulfonamide, Maleate] returned a melting point of 151 to 155 °C. In addition, in data set [1] (setting [3]), the Ki is 10 µM.

For the compound `Cc1noc(C)c1S(=O)(=O)Nc1cccc2c1CCCC2c1c[nH]cn1` (centres unmarked) [Example 61, N-[5-(1H-imidazol-4-yl)-5,6,7,8-tetrahydro-1-naphthalenyl]-3,5-dimethyl-4-isoxazolesulfonamide], the Ki in data set [1] (setting [3]) and in data set [2] (setting [4]) was 10 µM in each case.

In turn, `CCS(=O)(=O)Nc1cccc2c1CCCCC2c1c[nH]cn1.O=C(O)/C=C\C(=O)O` (centres unmarked) [Example 40, N-[5-(1H-imidazol-4-yl)-6,7,8,9-tetrahydro-5H-benzo[a]cyclohepten-1-yl]ethanesulfonamide, Maleate] displayed a melting point of 155 to 156 °C. Moreover, the Ki in data set [1] (setting [3]) is 10 µM. Further, in data set [2] (setting [4]), the Ki amounted to 10 µM.

The compound `CS(=O)(=O)Nc1ccc(Cl)c2c1CCCC2c1c[nH]cn1.O=C(O)/C=C\C(=O)O` (centres unmarked) [Example 43, N-[4-chloro-5-(1H-imidazol-4-yl)-5,6,7,8-tetrahydro-1-naphthalenyl]methanesulfonamide, Maleate] gave a melting point of 175 to 178 °C. For the same compound, the Ki in data set [1] (setting [3]) is 10 µM.

As to `O=S(=O)(Nc1cccc2c1CCCC2c1c[nH]cn1)C1CC1` (centres unmarked) [Example 27, N-[5,6,7,8-tetrahydro-(1H-imidazol-4-yl)-1-naphthalenyl]cyclopropanesulfonamide, Maleate], the Ki in data set [1] (setting [3]) worked out at 10 µM.

For `O=S(=O)(CC(F)(F)F)Nc1cccc2c1CCCC2c1c[nH]cn1` (single isomer, unassigned; (+)) [Example 36, (+)-N-[5,6,7,8-tetrahydro-5-(1H-imidazol-4-yl)-1-napbthalenyl]-2,2,2-trifluoroethanesulfonamide], the melting point is over 260 °C. For the same compound, the Ki in data set [2] (setting [4]) is 10 µM.

The compound `CCCn1cnc(C2CCCc3c2ccc(O)c3NS(C)(=O)=O)c1.Cl` (centres unmarked) [Example 7, N-[2-hydroxy-5-(1-propyl-1H-imidazol-4-yl)-5,6,7,8-tetrahydro-1-naphthalenyl]methanesulfonamide, Hydrochloride] showed a melting point of 128 to 133 °C. Further, the Ki in data set [1] (setting [3]) was found to be 100 µM.

Take `COC(=O)Nc1cccc2c1CCCC2c1c[nH]cn1` (centres unmarked) [Example 119, methyl 5-(1H-imidazol-4-yl)-5,6,7,8-tetrahydro-1-naphthalenylcarbamate]: the Ki in data set [1] was determined as 10 µM; in data set [2], 3.04 µM.

The compound `CS(=O)(=O)Nc1cccc2c1CCCCC2c1c[nH]cn1.O=C(O)/C=C\C(=O)O` (centres unmarked) [Example 38, N-[5-(1H-imidazol-4-yl)-6,7,8,9-tetrahydro-5H-benzo[a]cyclohepten-1-yl]methanesulfonamide, Maleate] had a melting point of 162 to 164 °C. Further, the Ki in data set [1] (setting [3]) came out at 10 µM.

Regarding `Cc1ccc(NS(C)(=O)=O)c2c1C(c1c[nH]cn1)CCC2.O=C(O)/C=C\C(=O)O` (centres unmarked) [Example 23, N-[5,6,7,8-tetrahydro-5-(1H-imidazol-4-yl)-4-methyl-1-naphthalenyl]methanesulfonamide, Maleate], the melting point fell in the range of 192 to 195 °C. Moreover, the Ki in data set [1] (setting [3]) was 10 µM.

On to `O=C(O)/C=C\C(=O)O.O=S(=O)(CC(F)(F)F)Nc1cccc2c1CCCC2c1c[nH]cn1` (centres unmarked) [Example 20, N-[5,6,7,8-tetrahydro-5-(1H-imidazol-4-yl)-1-naphthalenyl]-2,2,2-trifluoroethanesulfonamide, Maleate], for which the melting point was 138 to 140 °C. In addition, the Ki in data set [1] (setting [3]) stood at 10 µM.

As to `CCn1cnc(C2CCCc3c2ccc(O)c3NS(C)(=O)=O)c1` (centres unmarked) [Example 6, N-[5-(1-ethyl-1H-imidazol-4-yl)-2-hydroxy-5,6,7,8-tetrahydro-1-naphthalenyl]methanesulfonamide, Hydrochloride], the inhibition constant Ki in data set [1] (setting [3]) was found to be 100 µM.

Turning to `CCC(O)(c1cccc(NS(=O)(=O)CC)c1)c1c[nH]cn1` (centres unmarked) [Example 55, N-[3-(1-hydroxy-1-(1H-imidazol-4-yl)propyl)phenyl]ethanesulfonamide], the melting point is 120 to 124 °C.

In turn, `CS(=O)(=O)Nc1ccc(F)c(Cc2c[nH]cn2)c1.O=C(O)/C=C\C(=O)O` yielded a melting point of 146 to 147 °C.

`CCS(=O)(=O)Nc1cccc(C(C)c2c[nH]cn2)c1.O=C(O)/C=C\C(=O)O` (centres unmarked) came in with a melting point of 114 to 119 °C.

Compound `CS(=O)(=O)Nc1ccc(O)c2c1CCCC2c1c[nH]cn1.O=C(O)/C=C\C(=O)O` (centres unmarked) [Example 24, N-[5,6,7,8-tetrahydro-4-hydroxy-5-(1H-imidazol-4-yl)-1-naphthalenyl]methanesulfonamide, Maleate] returned a melting point of 127 to 131 °C. The Ki in data set [1] (setting [3]) was found to be 10 µM. In addition, the Ki in data set [2] (setting [4]) was 10 µM.

In the case of `CCS(=O)(=O)Nc1cc(Cc2c[nH]cn2)ccc1F`, the melting point was in the range of 122 to 123 °C.

In turn, `CCS(=O)(=O)Nc1cc(Cl)cc(Cc2c[nH]cn2)c1Cl` registered a melting point of 182 to 184 °C.

On to “N-[5,6,7,8-tetrahydro-5-(1H-imidazol-4-yl)-1-naphthalenyl]-2-methylethanesulfonamide, Maleate [Example 18]”, for which the Ki in data set [1] (setting [3]) was found to be 10 µM.

Regarding `CS(=O)(=O)Nc1cccc2c1CCC2c1c[nH]cn1.O=C(O)/C=C\C(=O)O` (centres unmarked) [Example 22, N-[1-(1H-imidazol-4-yl)-2,3-dihydro-1H-inden-4-yl]methanesulfonamide, Maleate], the melting point lay within 168 to 169 °C.

As to `O=S(=O)(CC(F)(F)F)Nc1cccc2c1OCCC2c1c[nH]cn1` (single isomer, unassigned) (as salt: maleic acid salt) [Example 88, 2,2,2-trifluoro-N-[4-(1H-imidazol-4-yl)-3,4-dihydro-2H-chromen-8-yl]ethanesulfonamide], the melting point fell in the range of 173 to 176 °C.

For `CCS(=O)(=O)Nc1ccc(OC)c2c1CCCC2c1c[nH]cn1` (centres unmarked) [Example 25, N-[5,6,7,8-tetrahydro-(1H-imidazol-4-yl)-4-methoxy-1-naphthalenyl]ethanesulfonamide, Maleate], the Ki in data set [1] (setting [3]) and in data set [2] (setting [4]) was 10 µM in each case.

As for `CS(=O)(=O)Nc1cccc2c1OCCC2c1c[nH]cn1.O=C(O)/C=C\C(=O)O` (centres unmarked) [Example 19, N-[4-(1H-imidazol-4-yl)-3,4-dihydro-2H-chromen-8-yl]methanesulfonamide, Maleate], the melting point was in the range of 172 to 174 °C.

The compound `CCS(=O)(=O)Nc1cccc(Cc2c[nH]cn2)c1Cl` returned a melting point of 182 to 184 °C.

Compound `Cl.Cn1cnc(C2CCCc3c2ccc(O)c3NS(C)(=O)=O)c1` (centres unmarked) [Example 5, N-[2-hydroxy-5-(1-methyl-1H-imidazol-4-yl)-5,6,7,8-tetrahydro-1-naphthalenyl]methanesulfonamide Hydrochloride] gave a melting point of 256 to 258 °C.

`CCS(=O)(=O)Nc1c(C)ccc2c1CCCC2c1c[nH]cn1` (centres unmarked) came in with a melting point of 196 to 199 °C.

Compound `CC(c1cccc(NS(C)(=O)=O)c1)c1c[nH]cn1.Cl` (centres unmarked) showed a melting point of 195 to 196 °C.
